# Measured values taken from patent publication US20260000656A1, “ANTIFUNGAL AGENTS WITH ENHANCED ACTIVITY IN ACIDIC PH” (Scynexis, Inc., priority 2017, published 2026).
# Like-named read-outs stand apart in the source and are kept apart here.
# Tested on: C. albicans isolates
# Test: Broth microdilution susceptibility (CLSI M27-A3) at different medium pH
# Assay type: cell-based, Candida albicans
# Details: for MIC50: read-out: MIC50
# Protocol: Ten strains each of C. glabrata and C. albicans vaginal isolates were tested. The strains were obtained from recent clinical trial patients with vulvovaginal candidiasis (VVC) prior to treatment. Candida strains were obtained from the Mycology Reference Library (MRL) at Case Western Reserve University School of Medicine, Ohio, United States.
# Susceptibility testing was performed using a broth microdilution method, according to CLSI M27-A3 guidelines (CLSI. 2008. Reference Method for Broth Dilution Antifungal Susceptibility Testing of Yeasts; Approved Standard—Third Edition. Clinical and Laboratory Standards Institute, CLSI document M27-A3). Antifungals and concentrations tested were SCY-078 and micafungin (both at concentrations within the range of 0.015 to 8 μg/ml) and fluconazole (at concentrations within the range of 0.125 to 64 μg/ml). A 0.1-ml C. albicans and C. glabrata inoculum of 0.5-2.5×10^3 blastospores/ml in RPMI 1640 medium was added to each microdilution well. ATCC strains of Candida parapsilosis and Candida krusei QC isolates were also included concurrently to ensure quality control. Antifungal susceptibility testing was carried out for each isolate in RPMI 1640 at pH 7 (to mimic RPMI medium used in testing the susceptibility of yeast by the CLSI M-27A3 document), pH 5.7, and pH 4.5 (to mimic the pH of the vaginal cavity) by adjusting the pH of the media using NaOH or HCl. […] Agents Chemother., 43: 1383-1386 (1999).
# […] SCY-078 powder was manufactured by Avista, Laboratories, NC. Micafungin and fluconazole were sourced from LGM Pharma.
# [1] = 50% inhibition, pH 4.5, 24 h, 10 vaginal isolates
smiles,measurement,setting,value
CC(C)[C@@H](C)[C@@]1(C)CC[C@]2(C)[C@H]3CC[C@@H]4[C@@]5(COC[C@]4(C)[C@@H](OC[C@](C)(N)C(C)(C)C)[C@H](n4ncnc4-c4ccncc4)C5)C3=CC[C@@]2(C)[C@@H]1C(=O)O [SCY-078],MIC90,[1],< 0.016 mg/L
same,MIC range,[1],<0.016 to 0.031 mg/L
same,MIC range,"50% inhibition, pH 5.72, 24 h, 10 vaginal isolates",0.125 to .25 mg/L
same,MIC range,"50% inhibition, pH 7.0, 24 h, 10 vaginal isolates",0.125 to 0.5 mg/L
same,MIC range,"100% inhibition, pH 4.5, 24 hours, 10 isolates",<0.016 to 4 mg/L
same,MIC range,"100% inhibition, pH 5.72, 24 hours, 10 isolates",0.25 to 2 mg/L
same,MIC range,"100% inhibition, pH 7.0, 24 hours, 10 isolates",0.25 to 4 mg/L
same,reduction in MIC50 at pH 4.5 compared to the MIC50 at pH 7.0,C. albicans isolates,16 fold
same,MIC50,"Candida albicans, 24 h, pH 4.5, 50% inhibition, pH 4.5, 24 h, 10 vaginal isolates",< 0.016 mg/L
same,MIC90,"Candida albicans, 24 h, pH 4.5, 50% inhibition, pH 4.5, 24 h, 10 vaginal isolates, read-out: MIC90",< 0.016 mg/L
same,MIC50,"Candida albicans, 24 h, pH 4.5, 100% inhibition, pH 4.5, 24 hours, 10 isolates",0.031 mg/L
same,MIC90,"Candida albicans, 24 h, pH 4.5, 100% inhibition, pH 4.5, 24 hours, 10 isolates, read-out: MIC90",0.031 mg/L
same,MIC,"Candida albicans, 24 h, pH 4.5, C. albicans MRL 34366, pH 4.5, 24 hours, read-out: MIC (50% inhibition)",0.031 mg/L
same,MIC,"Candida albicans, 24 h, pH 4.5, C. albicans MRL 34366, pH 4.5, 24 hours, read-out: MIC (100% inhibition)",0.031 mg/L
same,MIC,"Candida albicans, 24 h, pH 4.5, C. albicans MRL 34367, pH 4.5, 24 hours, read-out: MIC (50% inhibition)",< 0.016 mg/L
same,MIC,"Candida albicans, 24 h, pH 4.5, C. albicans MRL 34367, pH 4.5, 24 hours, read-out: MIC (100% inhibition)",0.031 mg/L
same,MIC,"Candida albicans, 24 h, pH 4.5, C. albicans MRL 34372, pH 4.5, 24 hours, read-out: MIC (50% inhibition)",< 0.016 mg/L
same,MIC,"Candida albicans, 24 h, pH 4.5, C. albicans MRL 34372, pH 4.5, 24 hours, read-out: MIC (100% inhibition)",< 0.016 mg/L
same,MIC,"Candida albicans, 24 h, pH 4.5, C. albicans MRL 34373, pH 4.5, 24 hours, read-out: MIC (50% inhibition)",< 0.016 mg/L
same,MIC,"Candida albicans, 24 h, pH 4.5, C. albicans MRL 34373, pH 4.5, 24 hours, read-out: MIC (100% inhibition)",< 0.016 mg/L
same,MIC,"Candida albicans, 24 h, pH 4.5, C. albicans MRL 34374, pH 4.5, 24 hours, read-out: MIC (50% inhibition)",< 0.016 mg/L
same,MIC,"Candida albicans, 24 h, pH 4.5, C. albicans MRL 34374, pH 4.5, 24 hours, read-out: MIC (100% inhibition)",< 0.016 mg/L
same,MIC,"Candida albicans, 24 h, pH 4.5, C. albicans MRL 34385, pH 4.5, 24 hours, read-out: MIC (50% inhibition)",< 0.016 mg/L
same,MIC,"Candida albicans, 24 h, pH 4.5, C. albicans MRL 34385, pH 4.5, 24 hours, read-out: MIC (100% inhibition)",0.031 mg/L
same,MIC,"Candida albicans, 24 h, pH 4.5, C. albicans MRL 34389, pH 4.5, 24 hours, read-out: MIC (50% inhibition)",< 0.016 mg/L
same,MIC,"Candida albicans, 24 h, pH 4.5, C. albicans MRL 34389, pH 4.5, 24 hours, read-out: MIC (100% inhibition)",0.031 mg/L
same,MIC,"Candida albicans, 24 h, pH 4.5, C. albicans MRL 34399, pH 4.5, 24 hours, read-out: MIC (50% inhibition)",< 0.016 mg/L
same,MIC,"Candida albicans, 24 h, pH 4.5, C. albicans MRL 34399, pH 4.5, 24 hours, read-out: MIC (100% inhibition)",0.031 mg/L
same,MIC,"Candida albicans, 24 h, pH 4.5, C. albicans MRL 34408, pH 4.5, 24 hours, read-out: MIC (50% inhibition)",< 0.016 mg/L
same,MIC,"Candida albicans, 24 h, pH 4.5, C. albicans MRL 34408, pH 4.5, 24 hours, read-out: MIC (100% inhibition)",4 mg/L
same,MIC,"Candida albicans, 24 h, pH 4.5, C. albicans MRL 34449, pH 4.5, 24 hours, read-out: MIC (50% inhibition)",< 0.016 mg/L
same,MIC,"Candida albicans, 24 h, pH 4.5, C. albicans MRL 34449, pH 4.5, 24 hours, read-out: MIC (100% inhibition)",0.031 mg/L
same,MIC50,"Candida albicans, 24 h, pH 5.72, 50% inhibition, pH 5.72, 24 h, 10 vaginal isolates",0.25 mg/L
same,MIC90,"Candida albicans, 24 h, pH 5.72, 50% inhibition, pH 5.72, 24 h, 10 vaginal isolates, read-out: MIC90",0.25 mg/L
same,MIC50,"Candida albicans, 24 h, pH 5.72, 100% inhibition, pH 5.72, 24 hours, 10 isolates",0.25 mg/L
same,MIC90,"Candida albicans, 24 h, pH 5.72, 100% inhibition, pH 5.72, 24 hours, 10 isolates, read-out: MIC90",0.5 mg/L
same,MIC,"Candida albicans, 24 h, pH 5.72, C. albicans MRL 34366, pH 5.72, 24 hours, read-out: MIC (50% inhibition)",0.25 mg/L
same,MIC,"Candida albicans, 24 h, pH 5.72, C. albicans MRL 34366, pH 5.72, 24 hours, read-out: MIC (100% inhibition)",0.5 mg/L
same,MIC,"Candida albicans, 24 h, pH 5.72, C. albicans MRL 34367, pH 5.72, 24 hours, read-out: MIC (50% inhibition)",0.125 mg/L
same,MIC,"Candida albicans, 24 h, pH 5.72, C. albicans MRL 34367, pH 5.72, 24 hours, read-out: MIC (100% inhibition)",0.5 mg/L
